Results from US12297296B2, “Nano small peptide and its use in preparation of drugs for treating and preventing fundus vascular diseases” (FUTU Biotech Co., Ltd., priority 2021, dated 2025).
Where a SMILES comes first, the peptide text is derived from it. [ ]: non-standard residue; d: D form. The star is where a group is joined. ξ: configuration not given here. Palmitoyl = CCCCCCCCCCCCCCCC(=O)*; ξF = NC(Cc1ccccc1)C(=O)O

How the values were obtained:
[1] = tested on: endothelial cells (primary endothelial cells of mouse brain microvessels); assay: CCK8 cytotoxicity assay; type: cell-based; conditions: 20 μM; 12, 14, and 36 h
OIR model mice = assay: Evans blue leakage test, fundus vascular leakage; type: in vivo, mouse; conditions: 2 nmol intravitreal
[2] = tested on: primary mouse brain microvascular endothelial cells; assay: Endothelial cell migration (transwell experiment); type: cell-based; conditions: 20 μM, 24 h; for sSema4D-induced endothelial cell migration: sSema4D 1600 ng/mL
Method: The primary mouse brain microvascular endothelial cells were starved with 0.5% ECM for 4 to 6 h. The mouse brain microvascular endothelial cells were seeded in the upper layer of a 24-well transwell chamber (8 μm). 1% ECM medium containing FH (20 μM), FG (20 μM), and Sema4D neutralizing antibody (BMA-12) (2 μg/μL) (the concentration of sSema4D in the medium is 1600 ng/mL) was added to the lower chamber, and an equal volume of DMSO was added as control. The cells were incubated in a 5% CO2 incubator at 37° C. for 24 h. 24 h later, the cells on the bottom of the chamber were fixed with 4% paraformaldehyde and stained with crystal violet, and the endothelial cells that penetrated to the bottom of the chamber were counted under a microscope.

[3] = In vivo imaging of small animals, entry into vitreous humor; set-up: species or system mouse; conditions: eye drops (10 μL, 20 μM, three times at 1 h intervals) and vitreous injection (1 μl, 20 μM)
Method: 10 μL of FH and FG eye drops (with the concentration of 20 μM, the solvent therein was artificial tears) were instilled on the eyeball surface of mice (8-week-old C57 male mice), once at an interval of 1 h. One hour after the third eye drop, the mice were anesthetized to have cardiac perfusion, the eyeballs of the mice were taken out, the connective tissue on the eye surface was trimmed, and the eyeballs were washed with PBS solution for several times to remove the nano eye drops from the surface of the eyeballs. The eyeball was placed in a small animal imager (at emission wavelength of 535 nm and excitation wavelength of 490 nm) for image acquisition.
Mice (8-week-old C57 male mice) were anesthetized with 4.3% chloral hydrate (0.01 ml/g), and antibiotic eye drops (levofloxacin eye drops), ocular surface anesthetics (Obucaine hydrochloride eye drops) were instilled before the surgery. The head position of the mouse was adjusted to keep the eyeball at the level of the corneal limbus. A small incision was made 1 mm behind the corneal limbus with an insulin injection needle, and 1 μl of nanomedicine FH (20 μM, FG (20 μM) or solvent was injected into the vitreous cavity along the small incision with a Hamilton 33 G syringe); the needle tip entered vertically and then tilted, and after pushing, the needle was retained for 0.5 to 1 min, and the needle was then pulled out quickly. […]

sSema4D [4] = molecular target: T1, sSema4D (Mus musculus, UniProt O09126); assay: CD spectra of nanoparticles before and after induction by sSema4D protein; type: physicochemical; set-up: the free Sema4D protein after enzyme cleavage of Sema4D, that is, the sSema4D protein purchased from R&D Systems Company; purchased R&D Systems; conditions: 20 μM; for CD secondary structure before induction by sSema4D protein: H2O containing 0.5% dimethyl sulfoxide, signal at 200 nm negative; for CD secondary structure after induction by sSema4D protein: signal at 200 nm positive, negative signal at 220 nm
T1 sequence (O09126 24-733 limits assumed): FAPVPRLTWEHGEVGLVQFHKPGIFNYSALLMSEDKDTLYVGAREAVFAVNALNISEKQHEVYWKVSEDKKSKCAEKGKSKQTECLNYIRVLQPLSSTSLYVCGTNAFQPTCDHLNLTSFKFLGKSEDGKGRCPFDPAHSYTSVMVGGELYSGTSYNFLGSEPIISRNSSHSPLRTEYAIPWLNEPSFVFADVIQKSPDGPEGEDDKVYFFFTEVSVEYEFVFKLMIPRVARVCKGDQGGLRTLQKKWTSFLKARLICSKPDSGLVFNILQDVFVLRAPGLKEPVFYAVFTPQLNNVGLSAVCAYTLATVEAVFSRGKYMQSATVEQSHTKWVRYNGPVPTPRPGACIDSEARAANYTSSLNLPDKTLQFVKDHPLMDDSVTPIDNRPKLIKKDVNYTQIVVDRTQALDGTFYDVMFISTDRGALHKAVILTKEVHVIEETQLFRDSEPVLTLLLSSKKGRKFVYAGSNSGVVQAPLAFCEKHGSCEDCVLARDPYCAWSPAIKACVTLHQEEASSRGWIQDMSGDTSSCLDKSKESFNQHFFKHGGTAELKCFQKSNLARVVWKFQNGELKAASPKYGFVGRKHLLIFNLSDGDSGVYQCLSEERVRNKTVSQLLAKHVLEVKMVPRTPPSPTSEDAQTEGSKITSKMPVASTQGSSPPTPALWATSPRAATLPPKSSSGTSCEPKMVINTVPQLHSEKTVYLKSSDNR
Method: First, FG and FH nanoparticle solutions with a concentration of 20 μM were prepared as follows. 0.01 mmol of FG (or FH) was weighed and dissolved in 1 mL of DMSO solution, and then diluted into 5 folds to a concentration of 2 mM, thus obtaining mother solution A. 10 μL of mother solution A was quickly added to 1 mL of water, and the resulting solution was then vortexed for 30 s to obtain a nanoparticle solution. Second, samples were made. 10 ul of FG (or FH) solution was added dropwise onto a copper mesh for 5 min, and the excess solution was removed with filter paper. 10 μL of uranyl acetate stain was added dropwise for 5 min, and the excess stain was removed with filter paper. Washing with 10 μl of deionized water was carried out once. The samples were dried in vacuum overnight. Finally, transmission electron microscopy observations were performed on an HT-7700 transmission electron microscope (Hitachi, Tokyo, Japan). Scale bar was 200 nm.
The CD spectra of FH and FG nanoparticles (20 μM) were collected at room temperature using a CD spectrometer (JASCO-1500, Tokyo, Japan) with an optical path length of 1 mm. Measurements were performed between 190 nm and 300 nm with a resolution of 1.0 nm at a scan speed of 300 nm/min. For each measurement, three spectra were collected and averaged.

sSema4D [5] = molecular target: T1, sSema4D; assay: sSema4D concentration in a simple medium system (ELISA); type: biochemical; set-up: the free Sema4D protein after enzyme cleavage of Sema4D, that is, the sSema4D protein purchased from R&D Systems Company; purchased R&D Systems; conditions: for sSema4D concentration: sSema4D 1600 ng/mL, peptides 20 μM, antibody 2 μg/μL
Method: The nano small peptides FH, FG, DMSO, and Sema4D neutralizing antibody (BMA-12) were added to the medium (the concentration of sSema4D in the medium was 1600 ng/mL) to ensure that the final concentration of FH and FG was 20 μM, and the final concentration of the Sema4D neutralizing antibody (BMA-12) (BMA-12, i.e., anti-Sema4D) was 2 μg/μL, an equal volume of DMSO was then added as a control, and culture plates were set still at 37° C. for 12, 24, 36, and 48 h, and the culture medium was collected, and the expression of Sema4D protein in the supernatant was detected using an ELISA kit (Shanghai Yuanmu Biotechnology Co., Ltd.).

CCCCCCCCCCCCCCCC(=O)NC(Cc1ccccc1)C(=O)N[C@@H](Cc1ccccc1)C(=O)N[C@H](C(=O)N[C@@H](CC(C)C)C(=O)N[C@@H](CCCCN)C(=O)N[C@@H](CCCCN)C(=O)N[C@@H](CCC(N)=O)C(=O)N[C@@H](CCCCN)C(=O)N[C@@H](CCCNC(=N)N)C(=O)N1CCC[C@H]1C(=O)N[C@@H](CCCNC(=N)N)C(=O)N[C@@H](Cc1c[nH]cn1)C(=O)O)C(C)C (stereo in doubt) [FH, hexadecanoyl-FFVLK-KQKRPRH]
toxic effects on endothelial cells [1]: did not cause toxic effects
treatment effect on fundus vascular leakage compared with anti-Sema4D (1 μg) (OIR model mice): comparable
vascular leakage of the fundus (OIR model mice): can inhibit vascular leakage of the fundus
inhibition of endothelial cell migration compared with Sema4D neutralizing antibody (BMA-12, 2 μg/μL) [2]: more effective
sSema4D-induced endothelial cell migration [2]: significantly inhibit
entry into the vitreous humor of mice [3]: entered the vitreous humor
CD secondary structure before induction by sSema4D protein (sSema4D [4]): random coil structure
CD secondary structure after induction by sSema4D protein (sSema4D [4]): transition to a β-sheet folded structure
sSema4D concentration (sSema4D [5]; 24 h): can reduce the sSema4D concentration
sSema4D concentration (sSema4D [5]; 36 h): can still reduce the sSema4D concentration
effect on sSema4D concentration compared with FG (sSema4D [5]; within the same action time): better than that of FG

CCCCCCCCCCCCCCCC(=O)NC(Cc1ccccc1)C(=O)N[C@@H](Cc1ccccc1)C(=O)N[C@H](C(=O)N[C@@H](CC(C)C)C(=O)N[C@@H](CCCCN)C(=O)N[C@@H](CCCCN)C(=O)N[C@@H](CC(N)=O)C(=O)N[C@@H](CCCCN)C(=O)N[C@@H](C)C(=O)N[C@@H](C)C(=O)N[C@@H](CCCCN)C(=O)NCC(=O)O)C(C)C (stereo partly drawn) [FG] (Palmitoyl-[ξF]FVLKKNKAAKG-OH)
toxic effects on endothelial cells [1]: did not cause toxic effects
treatment effect on fundus vascular leakage compared with anti-Sema4D (1 μg) (OIR model mice): comparable
vascular leakage of the fundus (OIR model mice): can inhibit vascular leakage of the fundus
inhibition of endothelial cell migration compared with Sema4D neutralizing antibody (BMA-12, 2 μg/μL) [2]: more effective
sSema4D-induced endothelial cell migration [2]: significantly inhibit
entry into the vitreous humor of mice [3]: entered the vitreous humor
CD secondary structure before induction by sSema4D protein (sSema4D [4]): random coil structure
CD secondary structure after induction by sSema4D protein (sSema4D [4]): transition to a β-sheet folded structure
sSema4D concentration (sSema4D [5]; 24 h): can reduce the sSema4D concentration
sSema4D concentration (sSema4D [5]; 36 h): can still reduce the sSema4D concentration
